Assay results taken from US6004938A, “Inositolglycans having insulin-like action” (Hoescht Aktiengesellschaft, priority 1996, dated 1999).

Experiments:
rat fat cells [1] = experiment: Lipogenesis in isolated rat fat cells (insulin-like activity); assay type: cell-based, rat (Wistar); conditions: rat fat cells, 90 min, 37° C.; for EC50: concentration at 50% of the maximum stimulation achieved by the respective compound, read-out: Lipogenesis EC50; for Emax / Lipogenesis % Insmax: part of maximum stimulation factor of insulin (set at 100%), D-[3-3H]glucose; for Emax: read-out: Lipogenesis % Insmax
Method: (§1) This example provides exemplary methods for determining insulin-like activity. The biological activity of the compounds of the formula I according to the invention is determined with the aid of isolated fat cells from the rat.
(§2) The preparation of fat cells from the rat was carried out as follows: White fatty tissue of the epididymis (Wistar rat, 160-180 g, no food restriction) is digested with collagenase and the resulting isolated fat cells are separated off by means of filtration of undigested tissue and washed by flotation several times using Krebs-Ringer-Henseleit buffer (KRH buffer).
This test determines the insulin-stimulable conversion of glucose into toluene-soluble products (triglycerides, phospholipids, fatty acids), which promotes glucose transport and triglyceride (glycerol-3-P synthesis, esterification)/phospholipid/fatty acid synthesis including the insulin signal transmission cascade. At a glucose concentration of 2.5 mM in the test, the esterification (and not the glycerol-3-P synthesis including glucose transport) is rate-determining for the stimulation of lipogenesis.
200 μl (3×10^5 cells/ml) of rat fat cells in KRH buffer are incubated at 37° C. for 90 min with 100 μl of D-[3-^3 H] glucose (25 mM, 0.4 μCi) in the presence or absence of insulin (10 ng/ml) or compound of the formula I according to the invention (final volume 1 ml). By addition of a toluene-soluble scintillation cocktail (10 ml), the cells are disrupted and the lipids are separated off from water-soluble products and the incubation medium. After phase separation, the radioactivity incorporated in lipid products is determined directly without removal of the aqueous phase by scintillation measurement ([^3 H]lipid [dpm×10^-3 ]). A control value (incubation under identical conditions but without cells) is subtracted from this radioactivity. The lipogenesis rate is linear up to 120 min. The maximum stimulation factor--this is the ratio of the incubation result with insulin to the incubation results without insulin--is set at 100%. The percentage data under "%Insmax " are parts of the maximum stimulation factor defined in this way. The term EC50 indicates the concentration of the compound of the formula I at which 50% of the maximum stimulation to be achieved by the respective compound of the formula I is to be observed.

rat fat cells [2] = experiment: Glucose transport in isolated rat fat cells (insulin-like activity); assay type: cell-based, rat (Wistar); conditions: rat fat cells, 2-[3H]-deoxyglucose; for Emax: 0.25 h, read-out: Glucose transport % Insmax; for Emax / Glucose transport % Insmax: part of maximum stimulation factor of insulin (set at 100%), 15 min, 37° C.; for EC50: concentration at 50% of the maximum stimulation achieved by the respective compound, read-out: Glucose transport EC50
Method: as §1, §2
[…] After addition of 15 μl of 2-[^3 H]-deoxyglucose (0.3 mM, 0.2 μCi), the incubation is continued at room temperature. After specified times (0-20 min), 100 μl of the test batch are removed and transferred to a reaction vessel (contents 400 μl), in which 250 μl of dinonyl phthalate have been initially introduced. After centrifugation (15,000×g, 1 min), the cells are separated off from the oily layer of the incubation medium underneath the oily layer by cutting the tube at the level of the oily layer and transferring to a scintillation vessel. After addition of 5 ml of water-soluble scintillation fluid, the radioactivity is determined. This total cell-associated radioactivity is corrected for [^3 H]-deoxyglucose which has passively diffused into the cells and is included in the cell interstices by subtraction of a control value (incubation in the presence of the glucose transport inhibitor cytochalasin B). The initial (stimulated) glucose transport rate is linear up to 15 min. The maximum stimulation factor--this is the ratio of the incubation result with insulin to the incubation result without insulin--is set at 100%.
The terms "%Insmax " and "EC50 " are as defined under A) lipogenesis.

Q: `N[C@H]1[C@H](O[C@H]2[C@H](O)[C@@H](O)[C@H](OP(=O)(O)O)[C@H](O)[C@@H]2O)O[C@H](CO)[C@@H](O)[C@@H]1O[C@H]1O[C@H](CO[C@H]2O[C@H](CO[PH](=O)O)[C@@H](O)[C@H](O)[C@@H]2O[C@H]2O[C@H](CO[PH](=O)O)[C@@H](O)[C@H](O)[C@@H]2O[C@H]2O[C@H](CO)[C@@H](O)[C@H](O)[C@@H]2O)[C@@H](O)[C@H](O)[C@@H]1O` [T, HO-PO(H)O-6Manα1(Manα1-2)-2Manα1(6-PO(H)OH)-6Manα1-3GluNβ1-6(L)inositol-3-phosphate] was tested. Which EC50 (rat fat cells [1]; 1.5 h) did it give?
A: 12 µM

Q: And the Emax (rat fat cells [1]; 1.5 h)?
A: 72%

Q: And the Emax (rat fat cells [2])?
A: 30%

Q: What about the EC50 (rat fat cells [2]) of the same molecule?
A: 10 µM

Q: What does the source list for `N[C@H]1[C@H](O[C@H]2[C@H](O)[C@@H](O)[C@H](OP(=O)(O)O)[C@H](O)[C@@H]2O)O[C@H](CO)[C@@H](O)[C@@H]1O[C@H]1O[C@H](CO[C@H]2O[C@H](CO[PH](=O)O)[C@@H](O)[C@H](O)[C@@H]2O[C@H]2O[C@H](CO)[C@@H](O)[C@H](O)[C@@H]2O[C@H]2O[C@H](CO)[C@@H](O)[C@H](O)[C@@H]2O)[C@@H](O)[C@H](O)[C@@H]1O` [U, Manα1-2Manα1-2Manα1(6-PO(H)OH)-6Manα1-3GluNβ1-6(L)inositol-3-phosphate]?
A: EC50 (rat fat cells [1]; 1.5 h): 15 µM; Emax (rat fat cells [1]; 1.5 h): 80%; Emax (rat fat cells [2]): 34%; EC50 (rat fat cells [2]): 15 µM

Q: Which results are given for `N[C@H]1[C@H](O[C@H]2[C@H](O)[C@@H](O)[C@H](OP(=O)(O)O)[C@H](O)[C@@H]2O)O[C@H](CO)[C@@H](O)[C@@H]1O[C@H]1O[C@H](CO[C@H]2O[C@H](COS(=O)(=O)O)[C@@H](O)[C@H](O)[C@@H]2O[C@H]2O[C@H](CO)[C@@H](O)[C@H](O)[C@@H]2O[C@H]2O[C@H](CO)[C@@H](O)[C@H](O)[C@@H]2O)[C@@H](O)[C@H](O)[C@@H]1O` [V, Manα1(Manα1-2)-2Manα1(6-HSO3)-6Manα1-3GluNβ1-6(L)inositol-3-phosphate]?
A: EC50 (rat fat cells [1]; 1.5 h): 15 µM; Emax (rat fat cells [1]; 1.5 h): 83%; Emax (rat fat cells [2]): 48%; EC50 (rat fat cells [2]): 15 µM

Q: What does the source list for `N[C@H]1[C@H](O[C@H]2[C@H](O)[C@@H](O)[C@H](OP(=O)(O)O)[C@H](O)[C@@H]2O)O[C@H](CO)[C@@H](O)[C@@H]1O[C@H]1O[C@H](CO[C@H]2O[C@H](COS(=O)(=O)O)[C@@H](O)[C@H](O)[C@@H]2O[C@H]2O[C@H](COS(=O)(=O)O)[C@@H](O)[C@H](O)[C@@H]2O[C@H]2O[C@H](CO)[C@@H](O)[C@H](O)[C@@H]2O)[C@@H](O)[C@H](O)[C@@H]1O` [W, HO-SO2 -O-6Manα1(Manα1-2)-2-Manα1(6-HSO3)-6Manα1-3GluNβ1-6(L)inositol-3-phosphate]?
A: EC50 (rat fat cells [1]; 1.5 h): 10 µM; Emax (rat fat cells [1]; 1.5 h): 86%; Emax (rat fat cells [2]): 42%; EC50 (rat fat cells [2]): 10 µM

Q: For “H2 N-CO-6Manα1(Manα1-2)-2Manα1-6Manα1-4GluNβ1-6(D)-inositol-1,2-(cyclic)-phosphate [K]”, which EC50 (rat fat cells [1]) is on record?
A: 8 µM

Q: And the “Lipogenesis % Insmax” value (rat fat cells [1])?
A: 72%

Q: And the EC50 (rat fat cells [2])?
A: 15 µM

Q: And the “Glucose transport % Insmax” value (rat fat cells [2])?
A: 23%

Q: What does the source list for “HO-PO(H)O-6-Manα1(Manα1-2)-2-Manα1-6Manα-3GluNβ1-6(L)-inositol-3-phosphate”?
A: EC50 (rat fat cells [1]): 20 µM; Lipogenesis % Insmax (rat fat cells [1]): 32%; EC50 (rat fat cells [2]): 20 µM; Glucose transport % Insmax (rat fat cells [2]): 18%

Q: What does the source list for “HO-PO(H)O-6Manα1(Manα1-2)-2-Manα1-6-Manα1-4GluN(HSO3)β-1-6(L)-inositol-1,2-(cyclic)-phosphate [J]”?
A: EC50 (rat fat cells [1]): 8 µM; Lipogenesis % Insmax (rat fat cells [1]): 63%; EC50 (rat fat cells [2]): 3 µM; Glucose transport % Insmax (rat fat cells [2]): 21%

Q: With “HO-PO(H)O-6Manα1(Manα1-2)-2Manα1-6Manα1-4GluNα1-6(L)inositol-2-phosphate [F]” as the molecule, how does the EC50 (rat fat cells [1]) read?
A: 15 µM

Q: And the “Lipogenesis % Insmax” value (rat fat cells [1])?
A: 53%

Q: What about the EC50 (rat fat cells [2]) of the same molecule?
A: 25 µM

Q: And the “Glucose transport % Insmax” value (rat fat cells [2])?
A: 26%

Q: Which EC50 (rat fat cells [1]) does the source give for “HO-PO(H)O-6Manα1-6-Manα1-6Manα1-6Manα1-3GluNβ1-6(L)inositol-3-phosphate” here?
A: 20 µM

Q: And the “Lipogenesis % Insmax” value (rat fat cells [1])?
A: 18%

Q: And the EC50 (rat fat cells [2])?
A: 50 µM

Q: What about the “Glucose transport % Insmax” value (rat fat cells [2]) of the same molecule?
A: 14%

Q: For “HO-SO2 -6Manα1(Manα1-2)-2Manα1-6Manα1-4GluNβ1-6(D)-inositol-1,2-(cyclic)-phosphate”, which EC50 (rat fat cells [1]) is on record?
A: 7 µM

Q: What about the “Lipogenesis % Insmax” value (rat fat cells [1]) of the same molecule?
A: 84%

Q: And the EC50 (rat fat cells [2])?
A: 8 µM

Q: What about the “Glucose transport % Insmax” value (rat fat cells [2]) of the same molecule?
A: 36%
